The text below walks through data of patent US10766865B2, “PKM2 modulators and methods for their use” (TOLERO PHARMACEUTICALS, INC., priority 2012, dated 2020).

Read-outs that look alike come from different tables or passages of the source.

A word on the EC50: it is the concentration needed to bring the measured effect to its halfway point.

The target in experiment [1] is T1, PKM2 (Homo sapiens, UniProt P14618). In words: Cell-Based Pyruvate Kinase Activity Assay, NCI-H1299. Also on record: host or cells: A549 or NCI-H1299 lung cancer cells. The conditions noted are these: NCI-H1299, 30 minutes with compound, n = 4; read-out: Cellular PKM2 activation EC50. The protocol:
Cell-Based Pyruvate Kinase Activity Assay
A549 or NCI-H1299 lung cancer cells were plated at 20,000 cells per well (96-well plate) in MEM media plus 10% FBS, with no additional glutamine or pyruvate. Following overnight incubation, cells were washed with PBS followed by 4 hour incubation in MEM media. Compounds were added to the cells in 1% final concentration DMSO. After 30 minutes, cells were lysed, and pyruvate kinase activity in lysates was determined by Pyruvate Kinase Activity Assay (BioVision, Milpitas, Calif.). Maximum velocity values were calculated from the kinetic data, and AC50 values were determined using Prism GraphPad Software (La Jolla, Calif.). Compound washout experiments were as described above, except after a 30 minute incubation with Example 244 (469 nM), the cells were washed with PBS followed by the addition of MEM media for the indicated time period, lysed and pyruvate kinase activity determined. Results are tabulated in Table 3 and presented graphically in FIGS. 6A and 6B.
Target sequence in this assay (P14618 2-531 limits assumed): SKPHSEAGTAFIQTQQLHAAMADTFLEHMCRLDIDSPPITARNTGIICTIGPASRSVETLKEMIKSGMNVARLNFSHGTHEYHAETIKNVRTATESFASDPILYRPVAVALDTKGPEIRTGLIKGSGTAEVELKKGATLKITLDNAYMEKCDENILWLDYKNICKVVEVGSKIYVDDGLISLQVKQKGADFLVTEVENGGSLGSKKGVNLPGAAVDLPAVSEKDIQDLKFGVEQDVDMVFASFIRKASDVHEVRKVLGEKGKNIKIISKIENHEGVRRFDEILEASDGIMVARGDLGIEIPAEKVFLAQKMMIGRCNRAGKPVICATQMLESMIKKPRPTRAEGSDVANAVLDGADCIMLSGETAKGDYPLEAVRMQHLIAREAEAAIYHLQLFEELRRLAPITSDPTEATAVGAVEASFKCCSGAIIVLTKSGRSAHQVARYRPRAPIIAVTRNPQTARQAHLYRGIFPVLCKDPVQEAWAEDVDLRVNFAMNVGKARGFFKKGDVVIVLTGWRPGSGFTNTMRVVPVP

Experiment [2] addresses T1, PKM2. As to the kind of experiment: PKM2 Biochemical Assay.
Target sequence in this assay (P14618 whole entry): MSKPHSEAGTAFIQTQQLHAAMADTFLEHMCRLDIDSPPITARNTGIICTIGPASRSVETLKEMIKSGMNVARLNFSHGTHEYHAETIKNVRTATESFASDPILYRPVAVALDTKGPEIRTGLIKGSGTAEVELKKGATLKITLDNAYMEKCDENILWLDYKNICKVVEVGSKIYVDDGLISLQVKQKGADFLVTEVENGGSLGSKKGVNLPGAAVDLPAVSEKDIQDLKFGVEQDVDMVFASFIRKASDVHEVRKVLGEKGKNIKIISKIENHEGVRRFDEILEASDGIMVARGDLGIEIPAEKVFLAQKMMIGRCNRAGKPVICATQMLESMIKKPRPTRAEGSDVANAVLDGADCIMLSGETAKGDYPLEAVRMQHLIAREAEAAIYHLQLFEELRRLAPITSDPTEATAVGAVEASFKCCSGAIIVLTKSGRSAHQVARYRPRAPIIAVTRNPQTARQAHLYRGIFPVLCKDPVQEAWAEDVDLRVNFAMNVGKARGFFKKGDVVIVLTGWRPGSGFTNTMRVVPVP

For `O=C(c1cc(C(F)(F)F)n[nH]1)N(Cc1ccc(O)cc1F)CC1CCC1` [Example 1, N-(cyclobutylmethyl)-N-(2-fluoro-4-hydroxybenzyl)-3-(trifluoromethyl)-1H-pyrazole-5-carboxamide], the EC50 on PKM2 [1] worked out at 220 ± 50 nM. Further, on PKM2 [2] (% maximum response in a biochemical assay as compared with Fructose 1,6-bisphosphate), the “Max. Resp.” value was found to be 100%. In addition, at PKM2 [2] (read-out: % FBP (extent of maximal activation, relative to FBP)), the Emax was found to be 104 ± 11%. The AC50 at PKM2 [2] (read-out: AC50 (concentration of half-maximal PKM2 activation), Table 2, n = 6 to 10) was found to be 11 ± 4 nM; at PKM2 [2] (read-out: PKM2 AC50, 2 nM PKM2, 75 μM ADP, 15 μM PEP, Kinase Glo), 11 nM. Further, on PKM2 [2] (relative to activity in DMSO controls (normalized to 100%), FIG. 1B), the “Maximal PKM2 activity” value is “approximately 600%”.
